In brackets after ≈: the same amount, converted by molar mass. Where two headings read alike, the source gives them in different places.
Legend:
Staph. aureus Smith [1] = assay: In vitro activity (MIC) against Staph. aureus Smith; assay type: cell-based; conditions: Staphylococcus aureus; Table 8
Staph. aureus Smith [2] = assay: In vivo activity (oral, iv; ED50) against Staph. aureus Smith in mice
Procedure: Representative examples of compounds of Formula I were tested for the oral efficacy using S. aureus Smith in mice.

E. coli = assay: Range of MIC for E. coli strains; conditions: Escherichia coli
Staph. = assay: Range of MIC for Staph. strains, including MRSA; conditions: Staphylococcus aureus, MRSA
[3] = Staphylococcus aureus, in Mus musculus, iv, read-out: ED50 SIV (Staph aureus Smith)
[4] = Staphylococcus aureus, in Mus musculus, po, read-out: ED50 SOD (Staph aureus Smith)
[5] = Staphylococcus aureus, in Mus musculus, po, read-out: ED50 Staph Smith SOD
[6] = iv, read-out: ED50 Staph Smith SIV
[7] = 20 h, read-out: Range of MIC, E. coli (Mouse Serum)
[8] = read-out: Range of MIC, E. coli (mouse serum)
[9] = read-out: Range of MIC, Staph (Mouse Serum)
[10] = read-out: Range of MIC, Staph (Water)
[11] = read-out: Range of MIC, Staph. (mouse serum)
[12] = read-out: Range of MIC, Staph. (water)

Row | SMILES | MIC (Staph. aureus Smith [1]) [µg/mL] | ED50 (Staph. aureus Smith [2]; [3]) [mg/kg] | ED50 (Staph. aureus Smith [2]; [4]) [mg/kg] | ED50 (Staph. aureus Smith [2]; [5]) [mg/kg] | ED50 (Staph. aureus Smith [2]; [6]) [mg/kg] | MIC (E. coli; [7]) [µg/mL] | MIC (E. coli; [8]) [µg/mL] | MIC (Staph.; [9]) [µg/mL] | MIC (Staph.; [10]) [µg/mL] | MIC (Staph.; [11]) [µg/mL] | MIC (Staph.; [12]) [µg/mL]
1 | CCCN(CC(=O)Nc1cc(N(C)C)c2c(c1O)C(=O)C1=C(O)[C@]3(O)C(=O)C(C(N)=O)=C(O)[C@@H](N(C)C)C3CC1C2)C(=O)OCOC(=O)C1CCCCC1 (stereo partly drawn) [Example 33, ({[(2-{[(7S,10aS)-9-(aminocarbonyl)-4,7-bis(dimethylamino)-1,8,10a,11-tetrahydroxy-10,12-dioxo-5,5a,6,6a,7,10,10a,12-octahydrotetracen-2-yl]amino}-2-oxoethyl)(propyl)amino]carbonyl}oxy)methyl cyclohexanecarboxylate] | 0.12 (≈ 0.159 µM) | 0.48 | 4.91 | 4.91 | 0.45 | 0.5 to 2 (≈ 0.662 to 2.65 µM) | 0.5 to 2 (≈ 0.662 to 2.65 µM) | 0.12 to 2 (≈ 0.159 to 2.65 µM) | 0.12 to 2 (≈ 0.159 to 2.65 µM) | 0.12 to 2 (≈ 0.159 to 2.65 µM) | 0.12 to 2 (≈ 0.159 to 2.65 µM)
2 | CCCN(CC(=O)Nc1cc(N(C)C)c2c(c1O)C(=O)C1=C(O)[C@]3(O)C(=O)C(C(N)=O)=C(O)[C@@H](N(C)C)[C@@H]3C[C@@H]1C2)C(=O)OCOC(=O)CC1CCCC1 [Example 40, ({[(2-{[(5aR,6aS,7S,10aS)-9-(aminocarbonyl)-4,7-bis(dimethylamino)-1,8,10a,11-tetrahydroxy-10,12-dioxo-5,5a,6,6a,7,10,10a,12-octahydrotetracen-2-yl]amino}-2-oxoethyl)(propyl)amino]carbonyl}oxy)methyl cyclopentylacetate] | 0.5 (≈ 0.662 µM) | 0.39 | 4.65 | 4.65 | 0.39 | 1 to 2 (≈ 1.32 to 2.65 µM) | 1 to 2 (≈ 1.32 to 2.65 µM) | 0.25 to 2 (≈ 0.331 to 2.65 µM) | 0.25 to 2 (≈ 0.331 to 2.65 µM) | 0.25 to 2 (≈ 0.331 to 2.65 µM) | 0.25 to 2 (≈ 0.331 to 2.65 µM)

From US20070049564A1 (Wyeth, priority 2005, published 2007)
